Consider twelve compounds from patent US20240316059A1, “PEPTIDE DRUG CONJUGATES” (Oncopeptides AB, priority 2021, published 2024).

The test system of this experiment is MM.1S cells. In words: In vitro cytotoxic potency in MM.1S cell viability assay (CellTiter-Glo). Format: cell-based, human. To be noted: Homo sapiens, MM1.S, 72 h, read-out: MM.1S IC50. The protocol: Methods: MM.1S Cells were cultivated in RPMI medium 1640 (IX) supplemented with 10 μg/μL penicillin/streptomycin, 10% heat inactivated FBS, 0.1 mM Sodium Pyruvate, 1×MEM NEAA (ThermoFisher) and 1 mM HEPES. Cells were grown to reach log phase before being exposed to the test compounds.
Test compounds (Example compounds 1 to 36, 38 to 41 and 45 to 48) and comparative compounds (bendamustine, busulfan, melphalan, chlorambucil and 4-hydroperoxy cyclophosphamide) were dissolved in 100% DMSO and added to a 384 assay plate. Additional DMSO was added to maintain the same final DMSO concentration (0.2%) in all wells. 25 μL cell suspension with a concentration of 100000 cells/mL was added to each well. The cells were cultured in a CO2 incubator at 37° C. for 72 h. Plates were equilibrated to room temperature for 30 minutes before adding 20 μL CellTiter-Glo® 2.0 (Promega) reagent to all wells. The plate was then allowed to stabilize for 20 minutes before recording the luminescence (emission filter 700 nm) in an Envision plate reader.
All cells were cultivated in RPMI medium 1640 (IX). All media was supplemented with 10 μg/μl penicillin/streptomycin, 10% heat inactivated FBS, 0.1 mM Sodium Pyruvate, 1×MEM NEAA (ThermoFisher) and 1 mM HEPES. The DERL-2 cells had higher FBS (20%) and 40 ng/mL IL-2 was added. hPBMCs were thawed and allowed to acclimatise overnight and then stimulated with 10 μg/mL PHA-M and 40 ng/mL IL-2 for 4 hours before being exposed to test compounds. All cells, except for hPBMCs, were grown to reach log phase before being exposed to the test compounds.
Test compounds were dissolved in 100% DMSO and added to a 384 assay plate. Additional DMSO was added to maintain the same final DMSO concentration (0.2%) in all wells. 25 μL cell suspension with a concentration of 100000 cells/mL was added to each well. The cells were cultured in a CO2 incubator at 37° C. for 72 h. Plates were equilibrated to room temperature for 30 minutes before adding 20 μL CellTiter-Glo® 2.0 (Promega) reagent to all wells. The plate was then allowed to stabilize for 20 minutes before recording the luminescence (Em filter 700 nm) in an Envision plate reader.
(ATP-based viability assays read luminescence as a measure of living cells.)
A word on the IC50: it is the concentration that gives 50% inhibition. On to `CCOC(=O)[C@H](CC(C)C)NC(=O)[C@@H](N)CCc1nc2cc(N(CCCl)CCCl)cnc2n1C` [Example 48, Ethyl (2S)-2-[[(2S)-2-amino-4-[6-[bis(2-chloroethyl)amino]-3-methyl-imidazo[4,5-b]pyridin-2-yl]butanoyl]amino]-4-methyl-pentanoate], for which the IC50 worked out at 205 nM.

With `CCOC(=O)[C@H](CCc1nc2cc(N(CCCl)CCCl)ccc2n1C)NC(=O)[C@@H](N)Cc1ccc(F)cc1` [Example 8, Ethyl (2S)-2-[[(2S)-2-amino-3-(4-fluorophenyl)propanoyl]amino]-4-[5-[bis(2-chloroethyl)amino]-1-methyl-benzimidazol-2-yl]butanoate], the IC50 worked out at 14.4 nM.

As to `CCOC(=O)[C@@H](NC(=O)[C@@H](N)CCc1nc2cc(N(CCCl)CCCl)ccc2n1C)C(C)C` [Example 3, Ethyl (2S)-2-[[(2S)-2-amino-4-[5-[bis(2-chloroethyl)amino]-1-methyl-benzimidazol-2-yl]butanoyl]amino]-3-methyl-butanoate], the IC50 turned out to be 6.8 nM.

As for `CCOC(=O)[C@H](CCc1nc2cc(N(CCCl)CCCl)ccc2n1C)NC(=O)[C@@H](N)CC(C)C` [Example 7, Ethyl (2S)-2-[[(2S)-2-amino-4-methyl-pentanoyl]amino]-4-[5-[bis(2-chloroethyl)amino]-1-methyl-benzimidazol-2-yl]butanoate], the IC50 is 22.9 nM.

With `CCOC(=O)[C@H](CC(C)C)NC(=O)[C@H](N)CCc1nc2cc(N(CCCl)CCCl)ccc2n1C` [Example 46, Ethyl (2S)-2-[[(2R)-2-amino-4-[5-[bis(2-chloroethyl)amino]-1-methyl-benzimidazol-2-yl]butanoyl]amino]-4-methyl-pentanoate], the IC50 turned out to be 59.1 nM.

Turning to `COC(=O)[C@H](CC(C)C)NC(=O)[C@@H](N)CCc1nc2cc(N(CCCl)CCCl)ccc2n1C` [Example 27, Methyl (2S)-2-[[(2S)-2-amino-4-[5-[bis(2-chloroethyl)amino]-1-methyl-benzimidazol-2-yl]butanoyl]amino]-4-methyl-pentanoate], the IC50 came to 8.2 nM.

`CCOC(=O)[C@H](CC(C)C)NC(=O)[C@@H](N)Cc1nc2cc(N(CCCl)CCCl)ccc2n1C` [Example 4, Ethyl (2S)-2-[[(2S)-2-amino-3-[5-[bis(2-chloroethyl)amino]-1-methyl-benzimidazol-2-yl]propanoyl]amino]-4-methyl-pentanoate]: the IC50 stood at 6.6 nM.

For the compound `CCOC(=O)[C@H](CCc1nc2cc(N(CCCl)CCCl)ccc2n1C)NC(=O)[C@@H](N)C(C)C` [Example 9, Ethyl (2S)-2-[[(2S)-2-amino-3-methyl-butanoyl]amino]-4-[5-[bis(2-chloroethyl)amino]-1-methyl-benzimidazol-2-yl]butanoate], the IC50 is 22.5 nM.

Regarding `CNC(=O)[C@H](CC(C)C)NC(=O)[C@@H](N)CCc1nc2cc(N(CCCl)CCCl)ccc2n1C` [Example 31, (2S)-2-[[(2S)-2-amino-4-[5-[bis(2-chloroethyl)amino]-1-methyl-benzimidazol-2-yl]butanoyl]amino]-N,4-dimethyl-pentanamide], the IC50 was found to be 181 nM.

Turning to `O=C(O)CCCc1ccc(N(CCCl)CCCl)cc1` [Chlorambucil, chlorambucil, reference compound], the IC50 was 6870 nM.

On to `COC(=O)[C@H](CC(C)C)NC(=O)[C@@H](N)Cc1nc2cc(N(CCCl)CCCl)ccc2n1C` [Example 14, Methyl (2S)-2-[[(2S)-2-amino-3-[5-[bis(2-chloroethyl)amino]-1-methyl-benzimidazol-2-yl]propanoyl]amino]-4-methyl-pentanoate], for which the IC50 is 8.7 nM.

With `CC(C)[C@H](NC(=O)[C@@H](N)CCc1nc2cc(N(CCCl)CCCl)ccc2n1C)C(=O)O` [Example 19, (2S)-2-[[(2S)-2-amino-4-[5-[bis(2-chloroethyl)amino]-1-methyl-benzimidazol-2-yl]butanoyl]amino]-3-methyl-butanoic acid], the IC50 stood at 4020 nM.
